Measured values as given in US20050050594A1, “Tryptophan synthase as a site of herbicide action” (priority 1999, published 2005).

Assays:
[1] = test system: a variety of dicotyledonous and monocotyledonous plants; experiment: Postemergence greenhouse herbicidal test; assay type: in vivo; conditions: Postemergence application
Procedure: The herbicidal activity of the compounds was tested as described in the U.S. Pat. No. 5,635,449. […] In the tests, seedling plants are grown in jiffy flats for about two weeks. The test compounds are dispersed in 50/50 acetone/water mixtures containing 0.5% TWEEN®20, a polyoxyethylene sorbitan monolaurate surfactant of Atlas Chemical Industries, in sufficient quantities to provide the equivalent of about 1.0 kg to 8.0 kg per hectare of test compound when applied to the plants through a spray nozzle operating at 40 psi for a predetermined time. After spraying, the plants are placed on greenhouse benches and are cared for in the usual manner, commensurate with conventional greenhouse practices. From four to five weeks after treatment, the seedling plants are examined and rate according to the rating system set forth below.

[2] = test system: TSβ (Spinacea enzyme); experiment: TSβ assay with partially purified spinach enzyme; assay type: biochemical, Spinacea oleracea; design: key: the increase in the number of “+” corresponds to the increase of inhibition; +++++: the increase in the number of “+” corresponds to the increase of inhibition; +++++++: the increase in the number of “+” corresponds to the increase of inhibition; conditions: determined qualitatively
Procedure: The assay was conducted in microfuge tubes by the TSβ reaction (indole+L-serine→L-tryptophan+H2O). 100 μL of extract was mixed with 150 μL of 0.4 mM indole, 80 mM serine, 0.03 mM PLP, 0.1 M Tris-Cl buffer pH 7.8, containing 7.5 μL of saturated NaCl. The mixture was incubated at 21° C. for increasing time intervals, from 10 min to several hours. The reaction was terminated by adding 25 μL 1 N NaOH, then 1 mL toluene with mixing, and then centifuging in a microfuge 2 min at 10,000×G to partition remaining indole into the toluene phase and away from the enzyme. Remaining indole was subsequently partitioned into the indole reagent phase and reacted with dimethylaminobenzaldehyde: 500 μL of the toluene layer from the microfuge tubes was mixed with 1 ml of the indole reagent in another tube and allowed to separate for 20 min, then the lower layer was carefully pipetted into a cuvette and its absorbance measured at 540 nm. This part of the assay was conducted as known in the art.
A unique microtiter plate method was also developed to streamline the partitioning steps and data collection. First, the TSβ reaction was performed as above in microfuge tubes. […] The plate was covered by a mylar sheet (to protect the plate reader and avoid evaporation) and absorbance was monitored on the plate reader at 535 nm. […]
TS was partially purified from spinach for use in the TSβ assay. The greatest degree of purification was achieved by homogenizing the tissue, preparing the 30-50% ammonium sulfate fraction and freezing it, thawing it, and applying the dissolved precipitate to an FPLC column (Waters SW300, Waters Corporation, Franklin, Mass.) to separate the TS activity (measured as TSβ) from the bulk of the protein. […] Because of the low yield of the assay of partially purified plant TS, endogenous enzyme was measured in crude extracts or in enzyme preparations involving one or two purification steps. […]

[3] = test system: Arabidopsis thaliana; experiment: Herbicidal activity and tryptophan reversal on Arabidopsis grown on agar medium; assay type: in vivo; design: key: 0 - no effect; 9 - total kill; C - chlorotic seedlings 4-6 days after treatment
Procedure: In this experiment, TS inhibitors were tested on Arabidopsis thaliana grown Murashige minimal organics medium, (obtained from Life Technologies, Grand Island, N.Y.), containing 0.7% agar. Compounds were tested at different concentrations to assess their herbicidal activity.

[4] = test system: mustard, hemp sesbania, soybean, lambsquarters, pigweed, bindweed, morningglory, corn, green foxtail, velvetleaf; experiment: Early injury symptoms and species effects on postemergence treated plants; assay type: in vivo; conditions: post emergence, 4 or 8 kg/ha; for Symptoms 6 DAT: 6 days after application
From the text: Herbicidal compounds of the invention were examined for their herbicidal effects by observing symptoms on postemergence treated plants.
Early injury symptoms caused by the TS-inhibiting herbicides of the invention are represented in Table 13. Symptoms and species effects are represented through the herbicidal activity {4-[(o-hydroxyphenyl)thio]butyl}-phosphonic acid, applied at 4 or 8 kg/ha.

With `O=P(O)(O)CCCCSc1ccccc1O` [Compound 22, {4-[(o-hydroxyphenyl)thio]butyl}-phosphonic acid] the “Herbicidal Activity” value [1] was “+++ (+++ = 80-100% injury to two species)”, the “TSβ (Spinacea enzyme), relative activity” value [2] was “+” and the herbicidal injury rating ([3]; herbicide 7.8 μM) was 0. It also gave a herbicidal injury rating ([3]; herbicide 16 μM) of 1, a herbicidal injury rating ([3]; herbicide 31 μM) of 1C and a herbicidal injury rating ([3]; herbicide 63 μM) of 3C. It also gave a herbicidal injury rating ([3]; herbicide 125 μM) of 3C, a herbicidal injury rating ([3]; herbicide 250 μM) of 3C and a herbicidal injury rating ([3]; herbicide 500 μM) of 5C. The herbicidal injury rating ([3]; herbicide 1000 μM) was 6C, the herbicidal rating ([3]; herbicide 7.8 mM, no Trp) was 5 and the herbicidal rating ([3]; herbicide 16 mM, no Trp) was 5. For the same molecule, the herbicidal rating ([3]; herbicide 31 mM + 100 μM Trp) was 0, the herbicidal rating ([3]; herbicide 31 mM, no Trp) was 6 and the herbicidal rating ([3]; herbicide 63 mM + 100 μM Trp) was 1. It also gave a herbicidal rating ([3]; herbicide 63 mM, no Trp) of 6, a herbicidal rating ([3]; herbicide 125 mM + 100 μM Trp) of 3 and a herbicidal rating ([3]; herbicide 125 mM, no Trp) of 6. It also gave a herbicidal rating ([3]; herbicide 250 mM + 100 μM Trp) of 5, a herbicidal rating ([3]; herbicide 250 mM, no Trp) of 6 and a herbicidal rating ([3]; herbicide 500 mM + 100 μM Trp) of 3. For the same molecule, the herbicidal rating ([3]; herbicide 500 mM, no Trp) was 6, the herbicidal rating ([3]; herbicide 1000 mM + 100 μM Trp) was 3 and the herbicidal rating ([3]; herbicide 1000 mM, no Trp) was 7. For the same molecule, the “Symptoms 6 DAT” value ([4]; height reduction) was “height reduction: lambs quarter,”, the “Symptoms 6 DAT” value ([4]; increased branching) was “increased branching: soybean” and the “Symptoms 6 DAT” value ([4]; leaf mottling) was “leaf mottling: mustard, soybean,”. For the same molecule, the “Symptoms 6 DAT” value ([4]; leaf yellowing) was “leaf yellowing: mustard, hemp”, the “Symptoms 6 DAT” value ([4]; shoot tip yellowing) was “shoot tip yellowing: hemp sesbania” and the “Symptoms 6 DAT” value ([4]; tip necrosis) was “tip necrosis: hemp sesbania”. For the same molecule, the “Species effects, 13 DAT: bindweed” value ([4]; 13 days after application) was “bindweed: mottling, some necrosis,”, the “Species effects, 13 DAT: corn” value ([4]; 13 days after application) was “corn: unaffected” and the “Species effects, 13 DAT: green foxtail” value ([4]; 13 days after application) was “green foxtail: stunted, yellowing, red”. For the same molecule, the “Species effects, 13 DAT: hemp sesbania” value ([4]; 13 days after application) was “hemp sesbania: no growth between 6”, the “Species effects, 13 DAT: lambsquarters height reduction” value ([4]; 13 days after application) was “lambsquarters: 40% height reduction,” and the “Species effects, 13 DAT: pigweed height reduction” value ([4]; 13 days after application) was “pigweed: 25% height reduction”. For the same molecule, the “Species effects, 13 DAT: soybean” value ([4]; 13 days after application) was “soybean: shoot nearly dead except” and the “Species effects, 13 DAT: velvetleaf height reduction” value ([4]; 13 days after application) was “velvetleaf: 50% height reduction”.
